Assay results: patent publication US20120142784A1, “LYSINE-SPECIFIC DEMETHYLASE 1(LSD1) IS A BIOMARKER FOR BREAST CANCER” (priority 2009, published 2012)

Legend:
[1] = tested on: global H3K4 dimethylation; experiment: Western blot of H3K4 dimethylation in breast cancer cells; assay type: cell-based; details: 10 and or 30 μM, 24 h
Experimental: Protein lysates were extracted from cells and blotted as described in Schulte et al. [Schulte, J. H. et al. (2009), see above] The membranes were incubated for 1-2 hours using the following antibodies and dilutions: α-LSD1 (Novus Biologicals) 1:1000; α-K4H3me2 (Abcam, Cambridge, UK) 1:1000; β-actin (Sigma-Aldrich, Hamburg, Germany) 1:5000; Her2/erbB2 (DAKO), 1:1000. […] Anal. Biochem., 295, 17-21].

LSD1 protein = LSD1 protein (Homo sapiens, UniProt O60341); details: breast cancer cells, 10 and or 30 μM, 24 h
Experimental: The membranes were incubated for 1-2 hours using the following antibodies and dilutions: α-LSD1 (Novus Biologicals) 1:1000; α-K4H3me2 (Abcam, Cambridge, UK) 1:1000; β-actin (Sigma-Aldrich, Hamburg, Germany) 1:5000; Her2/erbB2 (DAKO), 1:1000.

[2] = tested on: synovial sarcoma cell lines SYO-1, HS-SY-II, 1273/99, Fuji and CME-1; experiment: MTT cell growth assay, synovial sarcoma cell lines; details: five synovial sarcoma cell lines, 72 h
[3] = tested on: liposarcoma cell lines FU-DDLS-1, MLS1765, T449, T778, MLS402, SW872; experiment: MTT cell growth assay, liposarcoma cell lines; details: six liposarcoma cell lines, 72 h
[4] = tested on: MCF7, MDA-MB 453, MDA-MB 231 and T47D breast cancer cells; experiment: MTT cell growth assay, breast cancer cell lines; assay type: cell-based; details: four breast cancer cell lines, treatment for 72 hours
Experimental: (§1) MCF7, MDA-MB 453 and MDA-MB 231 breast cancer cells were cultivated in DMEM, T47D breast cancer cells were cultivated in RPMI, GLC-1, GLC-2 and H460 R lung carcinoma cells were cultivated in IMDM, and sarcoma cells 1273 were cultivated in Häm's F12. All media were supplemented with 10% FCS, L-glutamine and antibiotics.
(§2) An 3-([…])-2,5-diphenyltetrazolium bromide (MTT) assay was performed according to the manufacturer's protocol (Roche, Mannheim, Germany).

sarcoma cells 1273 = details: sarcoma cell line 1273, 72 hours
Experimental: as §1, §2

[5] = tested on: GLC-1, GLC-2 and H460 R lung carcinoma cells; details: three lung carcinoma cell lines, 72 hours
Experimental: as §1, §2

| Structure (SMILES) | global H3K4 dimethylation (Western blot) [1] | LSD1 protein levels (Western blot) (LSD1 protein) | cell growth (MTT assay, viable cells) [2] | cell growth (MTT assay, viable cells) [3] | cell growth (MTT assay, viable cells) [4] | cell growth (MTT assay, % viability) (sarcoma cells 1273) | cell growth (MTT assay, viable cells) [5] |
| --- | --- | --- | --- | --- | --- | --- | --- |
| C#CCN(C)CCCOc1ccc(Cl)cc1Cl [clorgyline] | accumulation of H3K4 dimethylation | not affected | impaired cell growth in these sarcoma cell lines in a concentration dependent manner | impaired cell growth in these sarcoma cell lines in a concentration dependent manner | impaired cell growth in a dose-dependent manner | – | – |
| C#CCN(C)Cc1ccccc1 [pargyline] | – | – | impaired cell growth in these sarcoma cell lines in a concentration dependent manner | impaired cell growth in these sarcoma cell lines in a concentration dependent manner | – | – | – |
| N[C@@H]1C[C@H]1c1ccccc1 (racemic) [tranylcypromine] | accumulation of H3K4 dimethylation | – | impaired cell growth in these sarcoma cell lines in a concentration dependent manner | impaired cell growth in these sarcoma cell lines in a concentration dependent manner | impaired cell growth in a dose-dependent manner | impaired cell growth | impaired cell growth |
